# Experimental data: patent US12545637B2, “Extrahepatic targeted cationic lipid compound with high efficiency and low toxicity and its composition” (BEIJING YOUCARE KECHUANG PHARMACEUTICAL TECHNOLOGY CO., LTD., priority 2023, dated 2026)
# Values joined by “and” are separate entries in the source; they are usually repeats but may differ in a detail not shown here. Equal values may be shown once.
# How the values were obtained:
# 293T cells [1] = experiment: Fluorescent detection of Fluc-mRNA (cell transfection efficiency of LNP formulations); assay type: cell-based
# 293T cells [2] = experiment: as above; assay type: cell-based; remark: listed apart in the source
# 293T cells [3] = experiment: Cell transfection test of LNP formulation of eGFP-mRNA (optimization of preparation conditions); assay type: cell-based
# Description: The cationic lipid compound YK-407 synthesized in Example 1 was dissolved in ethanol with DSPC (AVT (Shanghai) Pharmaceutical Technology Co., Ltd.), cholesterol (AVT (Shanghai) Pharmaceutical Technology Co., Ltd.) and DMG-PEG2000 according to a molar ratio of 49:10:39.5:1.5, respectively, to prepare an ethanol lipid solution. The ethanol lipid solution was quickly added to citrate buffer (pH=4-5) by ethanol injection method, and vortexed for 30s for later use. eGFP-mRNA was diluted in citrate buffer (pH=4-5) to give an aqueous mRNA solution. A certain volume of liposome solution and mRNA aqueous solution were used to prepare liposomes at weight ratios of total lipids to mRNA of 5:1, 10:1, 15:1, 20:1, 30:1 and 35:1, respectively. The mixtures were sonicated at 25° C. for 15 min (with an ultrasonic frequency of 40 kHz and an ultrasonic power of 800 W). The resulted liposomes were diluted to 10 times volume with PBS, and then ultrafiltered with a 300KDa ultrafiltration tube to remove ethanol. Then the volume was fixed to a certain volume with PBS to give an LNP formulation encapsulating eGFP-mRNA using cationic lipid YK-407/DSPC/cholesterol/DMG-PEG2000 (49:10:39.5:1.5 in molar percentage).
# The LNP formulation encapsulating eGFP-mRNA was prepared according to the method in 1, wherein the molar ratios of cationic lipid YK-407 to neutral lipid DSPC were 1:1, 3:1, 3.5:1, 4:1, 4.5:1, 4.9:1, 10:1, 15:1 and 20:1.
# The LNP formulation encapsulating eGFP-mRNA was prepared according to the method in 1, wherein the cationic lipid in the carrier was YK-407, and the molar ratios of the polymer-conjugated lipid DMG-PEG2000 to the carrier were 0.5%, 1.5%, 3.5%, 5%, 10% and 15%, respectively.
# The LNP formulation encapsulating eGFP-mRNA was prepared according to the method in 1, wherein the molar ratios of cationic lipid YK-407, neutral lipid DSPC, structured lipid cholesterol and polymer-conjugated lipid DMG-PEG2000 were 75:5:15:5, 49:10:39.5:1.5, 45:10:43.5:1.5, 45:25:20:10, 40:10:48.5:1.5, 35:10:53.5:1.5 and 25:5:65:5, respectively.
# Cell recovery and passage: 293T cells were recovered, cultured in a culture dish, and passaged to the required number of cells.
# Seeding plate: The cells in the culture dish were digested and counted. Cells were spread in a 96-well plate at 10,000 cells per well and in a 12-well plate at 150,000 cells per well. Cells were cultured overnight until the cells adhered to the wall.
# Cell transfection test: The LNP formulation containing 1.5 μg of eGFP-mRNA prepared in Example 2 (the cationic lipid in the carrier was YK-407) and the Lipofectamin 3000 formulation of eGFP-mRNA were added respectively to the cell culture medium of the 12-well plate, and further incubated for 24 hours. The transfection efficiency of different samples was then investigated according to the fluorescence intensity by observing with a fluorescence microscope.
# [4] = Detection of encapsulation efficiency, drug loading concentration and total RNA concentration (RiboGreen); assay type: physicochemical
# In short: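 Samples were diluted in 1×TE to about […], combined with TE and 0.1% Triton X-100 buffers, and held at 37 °C for 10 minutes before dye addition.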
# [5] = LNP formulation prepared from the cationic lipid
smiles,measurement,setting,value
CCCCCCCCCCCOC(=O)CCCN(CCO)CCN(CCO)CCCCCC(=O)OC(CCCCCCCC)CCCCCCCC [YK-407],"RLU value, times that of ALC-0315",293T cells [1]; ratio vs ALC-0315,9.31
same,"RLU value, times that of HHMA",293T cells [1]; ratio vs HHMA,9.81
same,"RLU value, times that of Lipofectamine 3000",293T cells [1]; ratio vs Lipofectamine 3000,16.98
same,"RLU value, times that of YK-009",293T cells [1]; ratio vs YK-009,3.96
same,"RLU value, times that of YK-405",293T cells [1]; ratio vs YK-405,6.37
same,"RLU value, times that of YK-406",293T cells [1]; ratio vs YK-406,260.51
same,"RLU value, times that of YK-408",293T cells [1]; ratio vs YK-408,13.83
same,"RLU value, times that of YK-409",293T cells [1]; ratio vs YK-409,30.43
same,"RLU value, times that of YK-410",293T cells [1]; ratio vs YK-410,49.98
same,"cell transfection efficiency, times that of YK-412",293T cells [1]; ratio vs YK-412,6.05
same,"cell transfection efficiency, times that of YK-413",293T cells [1]; ratio vs YK-413,14.80
same,"cell transfection efficiency, times that of YK-414",293T cells [1]; ratio vs YK-414,45.90
same,"cell transfection efficiency, times that of YK-416",293T cells [1]; ratio vs YK-416,5.13
same,"cell transfection efficiency, times that of YK-419",293T cells [1]; ratio vs YK-419,6.44
same,"cell transfection efficiency, times that of YK-420",293T cells [1]; ratio vs YK-420,5.07
same,"cell transfection efficiency, times that of YK-421",293T cells [1]; ratio vs YK-421,43.69
same,Relative light unit (RLU),"293T cells [2]; LNP with 0.3 μg Fluc-mRNA, 96-well plate, 24 hours",20385506 RLU
same,"cell transfection efficiency, times that of YK-415",293T cells [2]; ratio vs YK-415,68.40
same,"cell transfection efficiency, times that of YK-417",293T cells [2]; ratio vs YK-417,173.81 and 170
same,"cell transfection efficiency, times that of YK-418",293T cells [2]; ratio vs YK-418,183.24 and 180
same,"cell transfection efficiency, times that of YK-424",293T cells [2]; ratio vs YK-424,7.07
same,"RLU value, times that of compound 21",293T cells [2]; ratio vs compound 21,13.49 and 13
same,"RLU value, times that of compound 23",293T cells [2]; ratio vs compound 23,14.53 and 15
same,transfection efficiency at different molar ratios of polymer-conjugated lipid DMG-PEG2000 to carrier,293T cells [3]; 0.5% to 15%,the transfection efficiency was the highest when the molar ratio was 1.5%
same,"transfection effect at different molar ratios of cationic lipid, neutral lipid, structured lipid and polymer-conjugated lipid",293T cells [3]; 75:5:15:5 to 25:5:65:5,the transfection effect was the best when the ratio was 40:10:48.5:1.5
same,transfection efficiency at different molar ratios of cationic lipid to neutral lipid DSPC,293T cells [3]; ratios 1:1 to 20:1,the transfection efficiency was the highest at the molar ratio of cationic lipid to neutral lipid of 4:1
same,transfection effect at different weight ratios of carrier to mRNA,"293T cells [3]; ratios 5:1, 10:1, 15:1, 20:1, 30:1 and 35:1",the ratio of 15:1 had the best transfection effect
same,Drug loading concentration,[4]; [5],35.67 µg/mL
same,Encapsulation efficiency,[4]; [5],85.2%
same,Total RNA concentration,[4]; [5],40.77 µg/mL
same,encapsulation efficiency higher than ALC-0315,[4]; difference vs ALC-0315,21.9%
same,encapsulation efficiency higher than HIMA,[4]; difference vs HIMA (HHMA),25.0%
same,encapsulation efficiency higher than SM-102,[4]; difference vs SM-102,22.3%
same,encapsulation efficiency higher than YK-009,[4]; difference vs YK-009,21.8%
same,encapsulation efficiency higher than compound 21,[4]; difference vs compound 21,27.2%
same,encapsulation efficiency higher than compound 23,[4]; difference vs compound 23,29.0%
same,"drug loading concentration, times that of ALC-0315",[4]; ratio vs ALC-0315,1.33
same,"total RNA concentration, times that of ALC-0315",[4]; ratio vs ALC-0315,1.08
same,"drug loading concentration, times that of HIMA",[4]; ratio vs HIMA (HHMA),1.09
same,"total RNA concentration, times that of HIMA",[4]; ratio vs HIMA (HHMA),1.12
same,"drug loading concentration, times that of SM-102",[4]; ratio vs SM-102,1.34
same,"total RNA concentration, times that of SM-102",[4]; ratio vs SM-102,1.13
same,"drug loading concentration, times that of YK-009",[4]; ratio vs YK-009,1.30
same,"total RNA concentration, times that of YK-009",[4]; ratio vs YK-009,1.06
same,"drug loading concentration, times that of compound 21",[4]; ratio vs compound 21,1.62
same,"total RNA concentration, times that of compound 21",[4]; ratio vs compound 21,1.41
same,"drug loading concentration, times that of compound 23",[4]; ratio vs compound 23,1.78
same,"total RNA concentration, times that of compound 23",[4]; ratio vs compound 23,1.31
